Data: patent publication US20250304594A1, “METHYL (R)-2-(FLUOROMETHYL)-5-OXO-4-PHENYL-4,5,6,7-TETRAHYDRO-1H-CYCLOPENTA[B]PYRIDINE-3-CARBOXYLATE AND METHYL (R)-2-(FLUOROMETHYL)-5-OXO-4-PHENYL-1,4,5,7-TETRAHYDROFURO[3,4-B]PYRIDINE-3-CARBOXYLATE AS Cav1,2 ACTIVATORS” (Novartis AG, priority 2020, published 2025)

Test system: cFos mRNA
Test: cFos mRNA induction in cortex of wild-type mice (PK-PD)
Type: in vivo, C57BL/6J male mice
Conditions: one hour after administration
Experimental: Assessment of Compound Exposure—cFos Induction (PK-PD) Relationship in Wild-Type Mice
Compound administration and brain tissue collection. Wild-type C57BL/6J male mice were obtained from Jackson laboratories (Bar Harbor, ME). The acute, single-dose effects of CaV1.2 activators of the present disclosure were evaluated in male eight-week old mice (n=6 mice per compound). Each compound was dissolved in 10% PEG300, 10% Solutol, 10% Cremophore EL, and 70% Phosphate Buffered Saline and administered intraperitoneal (i.p.) at a concentration of 1 mg/kg up to 30 mg/kg depending on the compound. Animals were euthanized one hour after compound administration via exsanguination under deep anesthesia. Blood was collected in EDTA tubes for downstream analysis of drug levels. Brains were rapidly removed from the skull, and the cerebral cortex and cerebellum were regionally dissected. Cerebellar samples were snap frozen in liquid nitrogen to assess compound exposure. Cortical samples for cFos assessment were placed in 500 μl of RNAlater solution (ThermoFisher) to preserve the integrity of RNA in the sample. Samples remained in RNAlater for at least 24 hours at 4° C. before moving to −80° C. for storage before processing.
Quantification of cFos mRNA induction. Tissue homogenization was performed using TissueLyser system for 96 well plates (Qiagen). First, frozen cortical samples were thawed, removed from RNAlater, and placed into TissueLyser tubes along with Buffer RLT containing 0.5% Reagent DX and one 5 mm TissueLyser metal bead. The TissueLyser tubes were loaded into a TissueLyser II tissue homogenizer for 3 rounds of homogenization, with each round lasting 5 minutes at 30 Hz bead-beating frequency. Total RNA was purified from the homogenate using RNeasy 96 Plus kit (Qiagen), RNA concentration and A260/A280 ratio were quantified via the Nanodrop (ThermoFisher), and all samples were normalized to 100 ng/μL concentration. RNA was reverse transcribed into cDNA using the Superscript III First-strand synthesis SuperMix Kit (ThermoFisher). For each sample, 6 μL of RNA (600 ng total) was mixed with 1 μL of Oligo dT and 1 μl of annealing buffer and heated to 65° C. for 5 minutes. Next, 10 μL of 2× First-Strand Reaction Mix and 2 μl of the Enzyme mix were added to achieve a total reaction volume of 20 μL. The samples were heated to 50° C. for 50 minutes then 85° C. for 5 minutes to complete cDNA synthesis.
Quantitative PCR was performed on the cDNA samples using Quantitect Multiplex RT-PCR kit (Qiagen) in a 384-well assay format. Each PCR well contained 2 μl of cDNA (60 ng total), 10 μL of RT-PCR mastermix, 1 μL of cFos FAM Taqman probe (Mm00487425_m1 (FAM) #4351368), 1 μL of GAPDH VIC Taqman probe (Mm99999915-g1 (VIC) #4448486), 0.2 μl of Multiplex RT mix and 5.8 μl of RNase-free water. On the ViiA7 Real-Time PCR system (ThermoFisher), the samples were heated to 95° C. for 15 minutes then cycled between 94° C. for 45 seconds and 60° C. for 45 seconds for 45 cycles. cFos Ct values were exported, normalized to GAPDH Ct values, and converted to relative fold change in expression using the delta-delta Ct relative quantification method. cFos fold changes between compound treatments and vehicle were analyzed by one-way ANOVA, followed by Tukey's post-hoc comparisons.

Row | SMILES | %↑cFOS mRNA cortex (3 mg/kg ip) | %↑cFOS mRNA cortex (10 mg/kg ip)
1 | COC(=O)C1=C(CF)NC2=C(C(=O)OC2)[C@H]1c1cccc(F)c1C(F)F (single isomer, unassigned) [Example 15] | 176% | 294%
2 | COC(=O)C1=C(CF)NC2=C(C(=O)OC2)[C@H]1c1cccc(F)c1[C@H](F)CF (single isomer, unassigned) [Example 6] | 199% | 
3 | COC(=O)C1=C(CF)NC2=C(C(=O)OC2)[C@H]1c1ccccc1OC(F)F (single isomer, unassigned) [Example 9] | 290% | 525%
4 | COC(=O)C1=C(CF)NC2=C(C(=O)OC2)[C@H]1c1cccc(F)c1C1CC1 (single isomer, unassigned) [Example 2] | 378% | 
5 | COC(=O)C1=C(CF)NC2=C(C(=O)OC2)[C@H]1c1cccc(F)c1C(F)(F)F (single isomer, unassigned) [Example 17] | 201% | 
6 | COC(=O)C1=C(CF)NC2=C(C(=O)OC2)[C@H]1c1cc(F)cc(F)c1[C@H]1CC1(F)F (single isomer, unassigned) [Example 4, Methyl (R)-4-(2-((R or S)-2,2-difluorocyclopropyl)-3,5-difluorophenyl)-2-(fluoromethyl)-5-oxo-1,4,5,7-tetrahydrofuro[3,4-b]pyridine-3-carboxylate] | 161% | 
7 | COC(=O)C1=C(CF)NC2=C(C(=O)OC2)[C@H]1c1cc(F)cc(F)c1C1CC1 (single isomer, unassigned) [Example 13] | 225% | 444%
8 | COC(=O)C1=C(CF)NC2=C(C(=O)OC2)[C@H]1c1cccc(F)c1[C@H]1CC1(F)F (single isomer, unassigned) [Example 1, methyl (R)-4-(2-((R or S)-2,2-difluorocyclopropyl)-3-fluorophenyl)-2-(fluoromethyl)-5-oxo-1,4,5,7-tetrahydrofuro[3,4-b]pyridine-3-carboxylate] | 254% | 
9 | COC(=O)C1=C(CF)NC2=C(C(=O)OC2)[C@H]1c1cc(F)cc(F)c1C(F)(F)F (single isomer, unassigned) [Example 10] | 225% | 
10 | COC(=O)C1=C(CF)NC2=C(C(=O)OC2)[C@H]1c1cccc(F)c1[C@@H](C)F (single isomer, unassigned) [Example 8] | 496% | 
11 | COC(=O)C1=C(CF)NC2=C(C(=O)CC2)[C@H]1c1cccc(F)c1[C@@H](F)CF (single isomer, unassigned) [Example 7, methyl (R)-4-(2-((R or S)-1,2-difluoroethyl)-3-fluorophenyl)-2-(fluoromethyl)-5-oxo-4,5,6,7-tetrahydro-1H-cyclopenta[b]pyridine-3-carboxylate] | 262% | 
12 | COC(=O)C1=C(CF)NC2=C(C(=O)CC2)[C@H]1c1cccc(F)c1C1CC1 (single isomer, unassigned) [Example 28] | 293% | 
13 | COC(=O)C1=C(CF)NC2=C(C(=O)OC2)[C@H]1c1cc(F)cc(F)c1C(F)F (single isomer, unassigned) [Example 18] | 173% | 280%
14 | COC(=O)C1=C(CF)NC2=C(C(=O)OC2)[C@H]1c1cccc(F)c1CC(F)F (single isomer, unassigned) [Example 11] | 160% | 
15 | COC(=O)C1=C(CF)NC2=C(C(=O)OC2)[C@H]1c1cc(F)cc(F)c1[C@H](F)CF (single isomer, unassigned) [Example 16, methyl (R)-4-(2-((R or S)-1,2-difluoroethyl)-3,5-difluorophenyl)-2-(fluoromethyl)-5-oxo-1,4,5,7-tetrahydrofuro[3,4-b]pyridine-3-carboxylate] | 234% | 
16 | COC(=O)C1=C(CF)NC2=C(C(=O)OC2)[C@H]1c1cc(F)ccc1C(F)(F)F (single isomer, unassigned) [Example 23] | 365% | 
17 | COC(=O)C1=C(CF)NC2=C(C(=O)OC2)[C@H]1c1cc(F)cc(F)c1[C@H]1CC1(F)F (single isomer, unassigned) [Example 3, Methyl (R)-4-(2-((R or S)-2,2-difluorocyclopropyl)-3,5-difluorophenyl)-2-(fluoromethyl)-5-oxo-1,4,5,7-tetrahydrofuro[3,4-b]pyridine-3-carboxylate] | 204% | 
18 | COC(=O)C1=C(CF)NC2=C(C(=O)OC2)[C@H]1c1cc(F)cc(F)c1[C@H](C)F (single isomer, unassigned) [Example 5, methyl (R)-4-(3,5-difluoro-2-((R or S)-1-fluoroethyl)phenyl)-2-(fluoromethyl)-5-oxo-1,4,5,7-tetrahydrofuro[3,4-b]pyridine-3-carboxylate] | 400% | 
